Experimental data from ChEMBL document CHEMBL6083236, “Identification of novel diarylpyrimidine derivatives as potent HIV-1 non-nucleoside reverse transcriptase inhibitors against wild-type and K103N mutant viruses” (Eur J Med Chem, 2024).
pEC50, pIC50: −log10 of the molar value.

Tests used:
[1] = tested on: Human immunodeficiency virus 1; test: Antiviral activity against wild type HIV1 IIIB infected in human MT4 cells assessed as reduction in virus induced cytopathic effect incubated for 5 days by Spectrophotometric based MTT assay; type: functional, organism-based; conditions: Human immunodeficiency virus 1, IIIB, MT4, 120 h
[2] = tested on: Human immunodeficiency virus 1; test: Antiviral activity against HIV1 harboring RES056 mutant infected in human MT4 cells assessed as reduction in virus induced cytopathic effect incubated for 5 days by Spectrophotometric based MTT assay; type: functional, organism-based; conditions: Human immunodeficiency virus 1, RES056, MT4, 120 h
MT4 = test: Cytotoxicity against human MT4 cells assessed as reduction in cell viability incubated for 5 days by Spectrophotometric based MTT assay; type: functional; conditions: MT4, 120 h, time 5 day
[3] = Selectivity index, ratio of CC50 for cytotoxicity against human MT4 cells to EC50 for antiviral activity against wild type HIV1 IIIB infected in human MT4 cells
[4] = Selectivity index, ratio of CC50 for cytotoxicity against human MT4 cells to EC50 for antiviral activity against HIV1 RES056 mutant infected in human MT4 cells
[5] = tested on: Human immunodeficiency virus 1; test: Antiviral activity against HIV1 harboring L100I mutant infected in human MT4 cells assessed as reduction in virus induced cytopathic effect incubated for 5 days by Spectrophotometric based MTT assay; type: functional, organism-based; conditions: Human immunodeficiency virus 1, MT4, 120 h
[6] = tested on: Human immunodeficiency virus 1; test: Antiviral activity against HIV1 harboring K103 N mutant infected in human MT4 cells assessed as reduction in virus induced cytopathic effect incubated for 5 days by Spectrophotometric based MTT assay; type: functional, organism-based; conditions: Human immunodeficiency virus 1, MT4, 120 h
[7] = tested on: Human immunodeficiency virus 1; test: Antiviral activity against HIV1 harboring Y181C mutant infected in human MT4 cells assessed as reduction in virus induced cytopathic effect incubated for 5 days by Spectrophotometric based MTT assay; type: functional, organism-based; conditions: Human immunodeficiency virus 1, MT4, 120 h
[8] = tested on: Human immunodeficiency virus 1; test: Antiviral activity against HIV1 harboring Y188L mutant infected in human MT4 cells assessed as reduction in virus induced cytopathic effect incubated for 5 days by Spectrophotometric based MTT assay; type: functional, organism-based; conditions: Human immunodeficiency virus 1, MT4, 120 h
[9] = tested on: Human immunodeficiency virus 1; test: Antiviral activity against HIV1 harboring E138K mutant infected in human MT4 cells assessed as reduction in virus induced cytopathic effect incubated for 5 days by Spectrophotometric based MTT assay; type: functional, organism-based; conditions: Human immunodeficiency virus 1, MT4, 120 h
[10] = tested on: Human immunodeficiency virus 1; test: Antiviral activity against HIV1 harboring F227L/V106A mutant infected in human MT4 cells assessed as reduction in virus induced cytopathic effect incubated for 5 days by Spectrophotometric based MTT assay; type: functional, organism-based; conditions: Human immunodeficiency virus 1, MT4, 120 h
[11] = target: Human immunodeficiency virus type 1 reverse transcriptase (Human immunodeficiency virus 1, UniProt Q72547); test: Inhibition of wild type HIV1 reverse transcriptase assessed as inhibition of biotin deoxyuridine triphosphate incorporation into cDNA using DIG-labelled dNTP preincubated with compound for 1 hr followed by substrate addition in presence of biotin-labeled dNTPs by ELISA analysis

SMILES	pEC50 [1]	pEC50 [2]	CC50 (MT4)	selectivity ratio ([3]; MT4 cells)	selectivity ratio ([4]; MT4 cells)	pEC50 [5]	pEC50 [6]	pEC50 [7]	pEC50 [8]	pEC50 [9]	pEC50 [10]	pIC50 [11]	selectivity ratio ([3]; mt4)	selectivity ratio ([4]; mt4)
COP(=O)(OC)N1CCN(c2ccc(Nc3nccc(Oc4c(C)cc(/C=C/C#N)cc4C)n3)cc2C#N)C(=O)C1	6.60	< 4.63	23200 nM	94										
Cc1cc(/C=C/C#N)cc(C)c1Oc1ccnc(Nc2ccc(N3CCSCC3)c(C#N)c2)n1	8.05	6.35	> 267000 nM	> 30300	> 596	7.68	8.22	7.40	5.52	7.31	7.18			
CC(=O)N1CCN(c2ccc(Nc3nccc(Oc4c(C)cc(/C=C/C#N)cc4C)n3)cc2C#N)CC1	8.30	6.26	6640 nM	1280	12	7.21	8.52	7.19	< 5.18	7.52	7.36			
Cc1cc(/C=C/C#N)cc(C)c1Oc1ccnc(Nc2ccc(N3CC[S+]([O-])CC3)c(C#N)c2)n1	8.30	5.66	97800 nM	19300	45	7.66	8.40	7.34	< 4.01	7.59	6.72			
Cc1cc(/C=C/C#N)cc(C)c1Oc1ccnc(Nc2ccc(N3CCN(C)CC3)c(C#N)c2)n1	7.70	< 5.40	3940 nM	195										
Cc1cc(/C=C/C#N)cc(C)c1Oc1ccnc(Nc2ccc(N3CCCC3)c(C#N)c2)n1	7.27	5.27	270000 nM	5010	51									
CSC1CN(c2ccc(Nc3nccc(Oc4c(C)cc(/C=C/C#N)cc4C)n3)cc2C#N)C1	8.22	5.57	> 267000 nM	> 45200	> 99	7.74	8.22	7.28	< 3.57	7.41	6.82			
Cc1cc(/C=C/C#N)cc(C)c1Oc1ccnc(Nc2ccc(N3CCS(=O)(=O)CC3)c(C#N)c2)n1	8.70	6.59	58200 nM			8.40	8.70	7.92	< 4.23	8.05	7.24	6.80		
Cc1cc(/C=C/C#N)cc(C)c1Oc1ccnc(Nc2ccc(N3CCC(F)(F)CC3)c(C#N)c2)n1	7.51	5.90	> 257000 nM	> 8290										
CC(=O)C1CCN(c2ccc(Nc3nccc(Oc4c(C)cc(/C=C/C#N)cc4C)n3)cc2C#N)CC1	8.30	5.83	5120 nM	1070	3	7.19	7.92	6.82	< 5.29	6.96	7.12			
Cc1cc(/C=C/C#N)cc(C)c1Oc1ccnc(Nc2ccc(N3CC(F)C3)c(C#N)c2)n1	8.05	6.28	170000 nM	20000	328	7.32	8.00	7.31	< 3.77	7.20	6.48			
COC1CN(c2ccc(Nc3nccc(Oc4c(C)cc(/C=C/C#N)cc4C)n3)cc2C#N)C1	7.66	< 4.35	> 44200 nM	> 2050										
Cc1cc(/C=C/C#N)cc(C)c1Oc1ccnc(Nc2ccc(N3CCSCC3=O)c(C#N)c2)n1	7.89	6.04	45300 nM	3410	49									
Cc1cc(/C=C/C#N)cc(C)c1Oc1ccnc(Nc2ccc(N3CC(C#N)C3)c(C#N)c2)n1	7.89	< 4.35	> 44700 nM	> 3480										
Cc1cc(/C=C/C#N)cc(C)c1Oc1ccnc(Nc2ccc(N3CCCCC3)c(C#N)c2)n1	7.37	5.35	> 277000 nM	> 6380	> 62									
Cc1cc(/C=C/C#N)cc(C)c1Oc1ccnc(Nc2ccc(N3CCC(C(F)(F)F)CC3)c(C#N)c2)n1	7.40	4.75	> 241000 nM	> 6100	> 14									
Cc1cc(/C=C/C#N)cc(C)c1Oc1ccnc(Nc2ccc(N3CCC(S(C)(=O)=O)CC3)c(C#N)c2)n1	8.05	6.09	6440 nM	725	8	7.46	7.74	7.40	5.55	7.38	7.19			
Cc1cc(/C=C/C#N)cc(C)c1Oc1ccnc(Nc2ccc(N3CCC(C#N)CC3)c(C#N)c2)n1	8.05	5.86	> 42100 nM	> 4560	> 30	6.64	7.89	6.89	< 4.38	6.96	6.54			
Cc1cc(/C=C/C#N)cc(C)c1Oc1ccnc(Nc2ccc(N3CCOCC3=O)c(C#N)c2)n1	8.52	6.85	26600 nM	9540	191	7.89	8.40	7.64	5.59	7.82	6.48			
Cc1cc(/C=C/C#N)cc(C)c1Oc1ccnc(Nc2ccc(N3CCS(=O)(=O)CC3=O)c(C#N)c2)n1	8.40	6.04	34000 nM	8130	37	7.08	8.52	6.85	4.73	6.89	6.60			
Cc1cc(/C=C/C#N)cc(C)c1Oc1ccnc(Nc2ccc(N3CCC(F)CC3)c(C#N)c2)n1	7.85	5.83	> 267000 nM	> 18800	> 181									
Cc1cc(/C=C/C#N)cc(C)c1Oc1ccnc(Nc2ccc(N3CC[S+]([O-])CC3=O)c(C#N)c2)n1 (stereo unspecified)	7.82	5.55	26400 nM	1780	9									
COC1CCN(c2ccc(Nc3nccc(Oc4c(C)cc(/C=C/C#N)cc4C)n3)cc2C#N)CC1	8.22	< 5.16	6890 nM	1080		6.89	7.89	6.80	5.31	6.72	6.82			
Cc1cc(/C=C/C#N)cc(C)c1Oc1ccnc(Nc2ccc(N3CCN(C=O)CC3)c(C#N)c2)n1	8.40	6.03	15900 nM	4350	17	7.80	7.70	7.28	5.53	7.32	7.01			
Cc1cc(/C=C/C#N)cc(C)c1Oc1ccnc(Nc2ccc(N3CCN(S(C)(=O)=O)CC3=O)c(C#N)c2)n1	8.40	5.82	25600 nM	5910	17	7.00	8.30	6.51	< 4.59	7.03	6.55			
O=C1Nc2ccc(Cl)cc2[C@@](C#CC2CC2)(C(F)(F)F)O1 [EFAVIRENZ]		6.35	> 6340 nM			7.46	7.00	8.22			6.54			
Cc1cc(C#N)cc(C)c1Oc1nc(Nc2ccc(C#N)cc2)nc(N)c1Br [ETRAVIRINE]		7.09	> 4590 nM				8.30		7.46	7.60	7.55			
Cc1ccnc2c1NC(=O)c1cccnc1N2C1CC1 [NEVIRAPINE]		< 4.82	> 15000 nM			5.46	5.05	5.31	< 4.82		< 4.82			
Cc1cn([C@H]2C[C@H](N=[N+]=[N-])[C@@H](CO)O2)c(=O)[nH]c1=O [ZIDOVUDINE]	7.46	7.46	> 7480 nM										> 212	> 214
